{"source": "patent US10646469B2", "about": "“Substituted indole derivatives as dengue viral replication inhibitors” (Janssen Pharmaceuticals, Inc., priority 2016, dated 2020)", "key": {"DENV-2 16681 strain": {"system": "DENV-2 16681 strain", "experiment": "DENV-2 antiviral assay (eGFP-labeled virus in Vero cells)", "type": "cell-based, Dengue virus", "conditions": "DENV-2 16681 eGFP, MOI 0.5, 3 days", "procedure,_shortened": "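Vero cells (2500/well) pre-plated with compound (9-step 5-fold series), infected next day with eGFP-labeled DENV-2 16681 at MOI 0.5 in MEM with 2% FCS; 3 days at 37° C. eGFP fluorescence read at 488 nm; inhibition versus virus and cell controls, EC50 by linear interpolation.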"}, "[1]": {"experiment": "Toxicity on the same plates (ATPlite cell viability)", "conditions": "African green monkey, CC50, Vero cells, same plates as DENV-2 antiviral assay"}, "DENV-2 strain 16681": {"system": "DENV-2 strain 16681", "experiment": "Tetravalent RT-qPCR assay, serotype 2", "type": "cell-based", "conditions": "Dengue virus, DENV2, 72 h; RT-qPCR serotype 2 16681, Protocol A, Vero cells, day 3", "method": "(§1) The antiviral activity of the compounds of the invention was tested against DENV-1 strain TC974 #666 (NCPV), DENV-2 strain 16681, DENV-3 strain H87 (NCPV) and DENV-4 strain H241 (NCPV) in a RT-qPCR assay. Therefore, Vero cells were infected with either DENV-1, or -2, or -3, or -4 in the presence or absence of test compounds. At day 3 post-infection, the cells were lysed and cell lysates were used to prepare cDNA of both a viral target (the 3′UTR of DENV; Table 2) and cellular reference gene (β-actin, Table 2). Subsequently, a duplex real time PCR was performed on a Lightcycler480 instrument. The generated Cp value is inversely proportional to the amount of RNA expression of these targets. Inhibition of DENV replication by a test compound results in a shift of Cp's for the 3′UTR gene. On the other hand, if a test compound is toxic to the cells, a similar effect on β-actin expression will be observed. The comparative ΔΔCp method is used to calculate EC50, which is based on the relative gene expression of the target gene (3′UTR) normalized with the cellular housekeeping gene (β-actin). In addition, CC50 values are determined based on the Cp values acquired for the housekeeping gene β-actin.\n(§2) The culture medium consisted of minimal essential medium supplemented with 2% of heat-inactivated fetal calf serum, 0.04% gentamycin (50 mg/mL) and 2 mM of L-glutamine. Vero cells, obtained from ECACC, were suspended in culture medium and 75 μL/well was added in 96-well plates (10000 cells/well), which already contain the antiviral compounds. […] In addition, each plate contains wells which are assigned as virus controls (containing cells and virus in the absence of compound) and cell controls (containing cells in the absence of virus and compound). Once the cells were added in the plates, the plates were incubated in a fully humidified incubator (37° C., 5% CO2) until the next day. Dengue viruses serotype-1, 2, 3 and 4 were diluted in order to obtain a Cp of ˜22-24 in the assay. Therefore, 25 μL of virus suspension was added to all the wells containing test compound and to the wells assigned as virus control. In parallel, 25 μL of culture medium was added to the cell controls. Next, the plates were incubated for 3 days in a fully humidified incubator (37° C., 5% CO2). After 3 days, the supernatant was removed from the wells and the cells were washed twice with ice-cold PBS (˜100 μL). The cell pellets within the 96-well plates were stored at −80° C. for at least 1 day. Next, RNA was extracted using the Cells-to-CT™ lysis kit, according to the manufacturer's guideline (Life Technologies). The cell lysates can be stored at −80° C. or immediately used in the reverse transcription step.\n(§3) In preparation of the reverse transcription step, mix A (table 3A) was prepared and 7.57 μL/well was dispensed in a 96-well plate. After addition of 5 μL of the cell lysates, a five minute denaturation step at 75° C. was performed (table 3B). Afterwards, 7.43 μL of mix B was added (table 3C) and the reverse transcription step was initiated (table 3D) to generate cDNA.\n(§4) Finally, a RT-qPCR mix was prepared, mix C (table 4A), and 22.02 μL/well was dispensed in 96-well LightCycler qPCR plates to which 3 μL of cDNA was added and the qPCR was performed according to the conditions in table 4B on a LightCycler 480.\n(§5) Using the LightCycler software and an in-house LIMS system, dose response curves for each compound were calculated and the half maximal effective concentration (EC50) and the half maximal cytotoxic concentration (CC50) were determined (Tables 5-8)."}, "[2]": {"experiment": "Cytotoxicity in RT-qPCR assay (Cp of housekeeping gene β-actin)", "type": "cell-based", "conditions": "African green monkey", "method": "as §1, §2, §5"}, "DENV-4 strain H241": {"system": "DENV-4 strain H241", "experiment": "Tetravalent RT-qPCR assay, serotype 4", "type": "cell-based", "conditions": "Dengue virus, DENV4, 72 h; RT-qPCR serotype 4 H241, Protocol A, Vero cells, day 3", "method": "as §1, §2, §3, §4, §5"}, "DENV-3 strain H87": {"system": "DENV-3 strain H87", "experiment": "Tetravalent RT-qPCR assay, serotype 3", "type": "cell-based", "conditions": "Dengue virus, DENV3, 72 h; RT-qPCR serotype 3 H87, Protocol A, Vero cells, day 3", "method": "as §1, §2, §3, §4, §5"}, "DENV-1 strain TC974 #666": {"system": "DENV-1 strain TC974 #666", "experiment": "Tetravalent RT-qPCR assay, serotype 1", "type": "cell-based", "conditions": "Dengue virus, DENV1, 72 h; RT-qPCR serotype 1 TC974#666, Protocol A, Vero cells, day 3", "method": "as §1, §2, §3, §4, §5"}, "DENV-2": {"system": "DENV-2", "conditions": "analogous DENV-2 antiviral assay, reported activity; cited from earlier work"}, "[3]": {"conditions": "analogous DENV-2 antiviral assay, reported activity; cited from earlier work"}, "[4]": {"conditions": "Dengue virus, DENV2, Vero, 72 h"}, "[5]": {"conditions": "RT-qPCR serotype 1 TC974#666, Protocol A"}, "[6]": {"conditions": "RT-qPCR serotype 2 16681, Protocol A"}, "[7]": {"conditions": "RT-qPCR serotype 3 H87, Protocol A"}, "[8]": {"conditions": "RT-qPCR serotype 4 H241, Protocol A"}}, "note": "Where two headings read alike, the source gives them in different places."}
{"smiles": "COc1cc(NC(C(=O)c2c[nH]c3ccc(C(F)(F)F)cc23)c2ccc(F)cc2OC)cc(OCCO)c1", "note": "(racemic) [Compound 1, 2-(4-fluoro-2-methoxyphenyl)-2-((3-(2-hydroxyethoxy)-5-methoxyphenyl)amino)-1-(5-(trifluoromethyl)-1H-indol-3-yl)ethanone]", "values": [{"measurement": "EC50", "setting": "DENV-2 16681 strain; [4]", "result": 1.2, "unit": "nM"}, {"measurement": "melting point", "result": 132, "unit": "°C"}, {"measurement": "CC50", "setting": "[1]", "result": 5500, "unit": "nM"}]}
{"smiles": "COc1cc(NC(C(=O)c2c[nH]c3cc(OC)c(C(F)(F)F)cc23)c2ccc(F)cc2OC)cc(OCCO)c1", "note": "(racemic) [Compound 2, 2-(4-fluoro-2-methoxyphenyl)-2-((3-(2-hydroxyethoxy)-5-methoxyphenyl)amino)-1-(6-methoxy-5-(trifluoromethyl)-1H-indol-3-yl)ethanone]", "values": [{"measurement": "EC50", "setting": "DENV-2 16681 strain; [4]", "result": 0.71, "unit": "nM"}, {"measurement": "melting point", "result": 174, "unit": "°C"}, {"measurement": "CC50", "setting": "[1]", "result": 4800, "unit": "nM"}]}
{"smiles": "COc1cc(NC(C(=O)c2c[nH]c3cc(OC)c(OC(F)(F)F)cc23)c2ccc(F)cc2OC)cc(OCCO)c1", "note": "(racemic) [Compound 6, 2-(4-fluoro-2-methoxyphenyl)-2-((3-(2-hydroxyethoxy)-5-methoxyphenyl)amino)-1-(6-methoxy-5-(trifluoromethoxy)-1H-indol-3-yl)ethanone]", "values": [{"measurement": "EC50", "setting": "DENV-2 16681 strain; [4]", "result": 0.84, "unit": "nM"}, {"measurement": "melting point", "result": 178, "unit": "°C"}, {"measurement": "CC50", "setting": "[1]", "result": 3600, "unit": "nM"}]}
{"smiles": "COc1cc(NC(C(=O)c2c[nH]c3c(C)cc(OC(F)(F)F)cc23)c2ccc(Cl)cc2OC)cc(OCCO)c1", "note": "(racemic) [Compound 16, 2-(4-chloro-2-methoxyphenyl)-2-((3-(2-hydroxyethoxy)-5-methoxyphenyl)amino)-1-(7-methyl-5-(trifluoromethoxy)-1H-indol-3-yl)ethanone]", "values": [{"measurement": "EC50", "setting": "DENV-2 16681 strain; [4]", "result": 0.19, "unit": "nM"}, {"measurement": "melting point", "result": 105, "unit": "°C"}, {"measurement": "CC50", "setting": "[1]", "result": 2500, "unit": "nM"}]}
{"smiles": "COc1cc(NC(C(=O)c2c[nH]c3cc(F)c(C(F)(F)F)cc23)c2ccc(Cl)cc2OC)cc(OCCO)c1", "note": "(single isomer, unassigned) [Compound 11A, 2-(4-chloro-2-methoxyphenyl)-1-(6-fluoro-5-(trifluoromethyl)-1H-indol-3-yl)-2-((3-(2-hydroxyethoxy)-5-methoxyphenyl)amino)ethanone]", "values": [{"measurement": "EC50", "setting": "DENV-2 strain 16681", "result": 0.24, "unit": "nM"}, {"measurement": "EC50", "setting": "DENV-2 16681 strain", "result": 0.33, "unit": "nM"}, {"measurement": "CC50 at 3 days", "setting": "[2]; [5]", "result": "> 2500", "unit": "nM"}, {"measurement": "CC50 at 3 days", "setting": "[2]; [6]", "result": "> 2500", "unit": "nM"}, {"measurement": "CC50 at 3 days", "setting": "[2]; [7]", "result": "> 2500", "unit": "nM"}, {"measurement": "CC50 at 3 days", "setting": "[2]; [8]", "result": 1900, "unit": "nM"}, {"measurement": "EC50", "setting": "DENV-4 strain H241", "result": 39, "unit": "nM"}, {"measurement": "EC50", "setting": "DENV-3 strain H87", "result": 5.7, "unit": "nM"}, {"measurement": "EC50", "setting": "DENV-1 strain TC974 #666", "result": 0.69, "unit": "nM"}, {"measurement": "CC50", "setting": "[1]", "result": 2500, "unit": "nM"}]}
{"smiles": "COc1cc(NC(C(=O)c2c[nH]c3c(C)cc(OC(F)(F)F)cc23)c2ccc(Cl)cc2OC)cc(OCCO)c1", "note": "(single isomer, unassigned) [Compound 16A, 2-(4-chloro-2-methoxyphenyl)-2-((3-(2-hydroxyethoxy)-5-methoxyphenyl)amino)-1-(7-methyl-5-(trifluoromethoxy)-1H-indol-3-yl)ethanone]", "values": [{"measurement": "EC50", "setting": "DENV-2 strain 16681", "result": 0.15, "unit": "nM"}, {"measurement": "EC50", "setting": "DENV-2 16681 strain", "result": 0.098, "unit": "nM"}, {"measurement": "CC50 at 3 days", "setting": "[2]; [5]", "result": "> 2500", "unit": "nM"}, {"measurement": "CC50 at 3 days", "setting": "[2]; [6]", "result": "> 2500", "unit": "nM"}, {"measurement": "CC50 at 3 days", "setting": "[2]; [7]", "result": "> 2500", "unit": "nM"}, {"measurement": "CC50 at 3 days", "setting": "[2]; [8]", "result": "> 2000", "unit": "nM"}, {"measurement": "EC50", "setting": "DENV-4 strain H241", "result": 17, "unit": "nM"}, {"measurement": "EC50", "setting": "DENV-3 strain H87", "result": 1.7, "unit": "nM"}, {"measurement": "EC50", "setting": "DENV-1 strain TC974 #666", "result": 0.63, "unit": "nM"}, {"measurement": "CC50", "setting": "[1]", "result": 2400, "unit": "nM"}]}
{"smiles": "COc1cc(NC(C(=O)c2c[nH]c3ccccc23)c2ccc(F)cc2)cc(OCCO)c1", "note": "(stereo not shown) [(350) of WO-2013/045516]", "values": [{"measurement": "EC50", "setting": "DENV-2", "result": 10, "unit": "nM"}, {"measurement": "CC50", "setting": "[3]", "result": 46000, "unit": "nM"}]}
